The data set concerns male and female rats. Kind of data set: Acute toxicity at single administration, rats. The settings on record: for Body weight gain / Death of animals: male and female; for Death of animals: 14 days observation. Type of data set: in vivo. How it is done: The acute toxicity study was performed on 24 male and 24 female rats, and also on 24 male and 24 female mice. Before the administration of the Compound I, the body weight of the animals was recorded, after 1 hour of the administration, the state of the experimental animals was observed. Then, the body weights of rats and mice were recorded daily for 14 days after the administration of the substance, and the examination was carried out to detect the cases of death and abnormality in the state of the animals.
Compound I was administered to rats and mice intragastrically at a dose of 5000 mg/kg, intraperitoneally—at a dose of 2000 mg/kg. Control groups (female and male objects) were received a solvent (0.1% Tween-80 solution in water).

`O=C(Cc1ccc(O)cc1)N[C@@H](Cc1ccccc1)C(=O)NCCc1ccccc1` [Compound I, 2-phenylethylamide N-(p-hydroxyphenylacetyl)phenylalanine]: under “intragastrically 5000 mg/kg, intraperitoneally 2000 mg/kg”, the “Differences in the spontaneous behaviour, responses to the caused reactions” value was “not observed”. Moreover, under “intragastrically 5000 mg/kg”, the Body weight gain result is “lag in body weight gain” and the Death of animals result was “did not cause death of animals”. Besides, under “intraperitoneally 2000 mg/kg”, the Body weight gain result was “lag in body weight gain” and the Death of animals result is reported as “did not cause death of animals”.

Values taken from patent US11414377B2, “Modulator of metabotropic and ionotropic transmembrane receptors and use thereof” (IBD THERAPEUTICS LLC, priority 2018, dated 2022).
